Measured values from paper PMC1762332, “Catalases Are NAD(P)H-Dependent Tellurite Reductases” (PLoS ONE, 2006).

Assays:
[1] = molecular target: T1, S. epidermidis CH katA (catalase) (Staphylococcus epidermidis, UniProt Q2PUJ9); experiment: in-gel tellurite reductase activity after native PAGE of recombinant E. coli extract; assay type: biochemical; conditions: 1 mM K2TeO3, 1 mM NADH, 1 mM 2-mercaptoethanol, potassium phosphate pH 7, 37 °C, 12 h
T1 construct: katA coding region (1,515 bp) in pBAD (plasmid pCAT), expressed in E. coli Top10, extract; about 60 kDa subunit; homolog of SE1016 of ATCC12228

[2] = molecular target: T2, E. coli katG (HPI catalase) (Escherichia coli, UniProt P13029); experiment: in-gel tellurite reductase activity after native PAGE of E. coli extract; absent in katG mutant; assay type: biochemical; conditions: 1 mM K2TeO3, 1 mM NADH, 1 mM 2-mercaptoethanol, potassium phosphate pH 7, 37 °C, 12 h
T2 construct: native enzyme in extract of E. coli (Top10 with pBAD vector), resolved on native gel; tetramer; band absent in katG mutant
T2 sequence (P13029 whole entry): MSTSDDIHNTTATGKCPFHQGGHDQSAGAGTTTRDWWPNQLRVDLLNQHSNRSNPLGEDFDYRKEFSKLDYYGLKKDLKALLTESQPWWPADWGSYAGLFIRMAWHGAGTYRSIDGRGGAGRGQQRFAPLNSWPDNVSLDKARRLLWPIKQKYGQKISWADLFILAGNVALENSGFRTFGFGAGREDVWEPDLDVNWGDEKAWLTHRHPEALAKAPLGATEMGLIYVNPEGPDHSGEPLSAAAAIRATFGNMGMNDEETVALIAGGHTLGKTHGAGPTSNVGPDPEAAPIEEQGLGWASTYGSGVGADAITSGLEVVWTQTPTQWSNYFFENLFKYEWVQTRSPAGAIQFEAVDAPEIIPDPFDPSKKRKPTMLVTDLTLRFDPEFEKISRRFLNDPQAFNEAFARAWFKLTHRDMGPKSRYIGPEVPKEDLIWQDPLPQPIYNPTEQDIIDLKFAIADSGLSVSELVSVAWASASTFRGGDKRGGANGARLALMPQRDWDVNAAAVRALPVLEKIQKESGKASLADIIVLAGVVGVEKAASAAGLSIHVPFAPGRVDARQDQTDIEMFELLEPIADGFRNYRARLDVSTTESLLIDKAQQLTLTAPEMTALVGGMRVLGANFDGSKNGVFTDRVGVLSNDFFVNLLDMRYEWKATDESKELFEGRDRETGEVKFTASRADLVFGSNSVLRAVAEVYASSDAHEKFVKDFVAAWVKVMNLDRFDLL

T1 sequence (Q2PUJ9 3-504): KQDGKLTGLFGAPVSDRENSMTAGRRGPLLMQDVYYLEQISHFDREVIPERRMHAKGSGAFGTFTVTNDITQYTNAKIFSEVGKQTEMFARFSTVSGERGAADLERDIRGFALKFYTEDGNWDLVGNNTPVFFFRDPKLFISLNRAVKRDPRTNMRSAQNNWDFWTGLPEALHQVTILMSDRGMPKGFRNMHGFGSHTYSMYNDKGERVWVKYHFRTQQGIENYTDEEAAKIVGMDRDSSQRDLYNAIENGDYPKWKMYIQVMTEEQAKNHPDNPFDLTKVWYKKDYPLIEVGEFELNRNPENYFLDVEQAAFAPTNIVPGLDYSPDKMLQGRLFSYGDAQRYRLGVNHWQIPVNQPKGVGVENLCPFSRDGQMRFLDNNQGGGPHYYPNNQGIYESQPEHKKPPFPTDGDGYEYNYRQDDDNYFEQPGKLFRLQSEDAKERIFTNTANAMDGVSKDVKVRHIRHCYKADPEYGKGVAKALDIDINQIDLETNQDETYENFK

O=[Te](O)O [tellurite]
in-gel tellurite reductase activity after native PAGE of recombinant E. coli ext [1]: tellurite reductase activities of catalase are expressed at more than-four fold higher levels
in-gel tellurite reductase activity after native PAGE of E. coli extract; absent [2]: a barely detectable tellurite reductase activity
